Assay results from PMC3407951 (EMBO Molecular Medicine, 2012).

How the values were obtained:
ADAM10 = experiment: 0.4 µg; conditions: human, 37°C, up to 24 h
human NEP = human NEP (Homo sapiens, UniProt P08473); conditions: literature statement; ref Betts et al, [2008]; cited from earlier work
Sequence of human NEP (P08473 whole entry): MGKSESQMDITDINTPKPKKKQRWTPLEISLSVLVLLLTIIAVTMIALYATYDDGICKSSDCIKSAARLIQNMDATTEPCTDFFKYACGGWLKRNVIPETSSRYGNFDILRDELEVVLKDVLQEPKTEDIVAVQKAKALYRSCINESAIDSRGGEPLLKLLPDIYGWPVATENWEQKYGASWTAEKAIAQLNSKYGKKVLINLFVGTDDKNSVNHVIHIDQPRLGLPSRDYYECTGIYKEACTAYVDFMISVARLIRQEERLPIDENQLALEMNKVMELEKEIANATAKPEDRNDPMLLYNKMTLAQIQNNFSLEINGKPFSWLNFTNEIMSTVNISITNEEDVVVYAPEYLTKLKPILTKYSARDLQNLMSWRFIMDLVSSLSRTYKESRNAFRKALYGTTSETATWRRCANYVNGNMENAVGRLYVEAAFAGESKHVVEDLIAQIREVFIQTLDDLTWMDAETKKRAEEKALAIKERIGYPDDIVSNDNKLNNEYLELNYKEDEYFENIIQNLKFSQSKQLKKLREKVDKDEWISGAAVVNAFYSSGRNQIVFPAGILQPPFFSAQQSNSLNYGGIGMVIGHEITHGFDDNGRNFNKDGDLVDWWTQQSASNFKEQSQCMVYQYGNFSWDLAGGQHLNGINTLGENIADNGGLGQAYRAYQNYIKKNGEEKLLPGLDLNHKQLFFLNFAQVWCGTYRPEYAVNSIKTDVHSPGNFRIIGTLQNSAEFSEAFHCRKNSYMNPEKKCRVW

fragment found (ADAM10) | Substance | NEP-mediated degradation (human NEP)
Aβ11–16 K16N, minor, 5 h | EVHHQNLVFFAEDVGSNK | –
– | Aβ40 A21G: Aβ40 peptide with the Flemish mutation A21G (literature) | attenuated
